Measured values published in patent US20040247700A1 (priority 2001, published 2004).
Values joined by “and” are separate entries in the source; they are usually repeats but may differ in a detail not shown here. Identical values can stand only once. Like-named read-outs stand apart in the source and are kept apart here.

Assays:
COX-2 = target: T1, COX-2 (Mus musculus, UniProt Q05769); assay: cell-based
T1 construct: LPS, which was used to induce the expression of COX-2 in the RAW 264.7 cells; host or cells: RAW 264.7 (murine), LPS-stimulated
T1 sequence (Q05769 18-604): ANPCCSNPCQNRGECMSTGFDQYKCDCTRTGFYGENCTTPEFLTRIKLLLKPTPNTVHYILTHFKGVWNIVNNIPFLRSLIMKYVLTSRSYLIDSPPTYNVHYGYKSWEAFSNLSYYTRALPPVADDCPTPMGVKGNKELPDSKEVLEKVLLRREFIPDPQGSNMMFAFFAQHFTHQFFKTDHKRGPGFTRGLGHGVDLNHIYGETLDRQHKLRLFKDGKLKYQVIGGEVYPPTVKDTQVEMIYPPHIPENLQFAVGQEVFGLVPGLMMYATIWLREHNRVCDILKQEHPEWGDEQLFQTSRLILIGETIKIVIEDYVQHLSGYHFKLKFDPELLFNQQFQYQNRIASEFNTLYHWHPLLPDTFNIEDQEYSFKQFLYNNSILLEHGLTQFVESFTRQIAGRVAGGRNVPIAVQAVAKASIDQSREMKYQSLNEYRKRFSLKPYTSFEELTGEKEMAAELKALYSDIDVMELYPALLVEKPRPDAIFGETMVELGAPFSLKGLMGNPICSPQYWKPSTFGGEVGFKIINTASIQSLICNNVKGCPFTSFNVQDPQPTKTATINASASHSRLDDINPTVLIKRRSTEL
Protocol: The DMEM growth medium was made as follows 50 mL of heat inactivated FBS and 5 mL of penicillin/streptomycin were added to a 500 mL bottle of DMEM and stored at 4° C. This was warmed to 37° C. in a water bath before use and for best results should be used within three months.
On day one of the experiment, the log phase 264.7 cells were plated at 8×10^4 cells per well in 0.2 mL growth medium per well in a 96-well tissue culture plate. After 6 to 8 hours post plating, 100 μL fresh medium. […] It was mixed until dissolved and stored at 4° C. Immediately before use, it was thawed at room temperature or in a 37° C. water bath. A new solution was prepared every 60 days.
On day two of the experiment, the test materials were prepared as 1000× stock in DMSO. For example, if the final concentration of the test material was to be 10 μg/mL, a 10 mg/mL stock was prepared by dissolving 10 mg of the test material in 1 mL of DMSO. Fresh test materials were prepared on day 2 of the experiment. In 1.7 mL microfuge tubes, 1 mL DMEM without FBS was added to obtain test concentrations of 0.05, 0.10, 0.5, and 1.0 μg/mL. 2 μL of the 1000×DMSO stock of the test material was added to the 1 mL of medium without FBS. The tube contained the final concentration of the test material was concentrated 2-fold. The tube was placed in incubator for 10 minutes to equilibrate.
One-hundred mL of medium was removed from each well of the cell plates prepared on day one. One-hundred mL of equilibrated 2× final concentration the test compounds were added to cells and incubated for 90 minutes. LPS in DMEM without FBS was prepared by adding 44 μL of the 1 mg/mL DMSO to 10 mL of medium. For each well of cells to be stimulated, 20 μL of LPS (final concentration of LPS is 0.4 μg/mL of LPS) was added.
Determination of PGE2 Concentration in Medium
Equipment—freezer, 30° C.
General Procedure—EIA Buffer was prepared by diluting the contents of the EIA Buffer Concentrate (vial #4) with 90 ml of Ultra-pure water. Vial #4 was rinsed several times to ensure all crystals had been removed and was then placed into a 100 mL storage bottle and stored at 4° C.
The Wash Buffer was prepared by diluting Wash Buffer Concentrate (vial #5) 1:400 with Ultra-pure water. 0.5 ml/liter of Tween 20 (vial #5a) was then added (using a syringe for accurate measurement). For one liter Wash Buffer add 2.5 ml Wash Buffer Concentrate, 0.5 ml Tween-20, and 997 ml Ultra-pure water. The solution was stored in a 1 liter storage bottle at 4° C.
The Prostaglandin E2 standard was reconstituted as follows. A200 μL pipet tip was equilibrated by repeatedly filling and expelling the tip several times in ethanol. The tip was used to transfer 100 μL of the PGE2 Standard (vial #3) into a 1.7 mL microfuge tube. 900 μL Ultra-pure water was added to the tube and stored at 4° C., which was stable for ˜6 weeks. The Prostaglandin E2 acetylcholinesterase tracer was reconstituted as follows. 100 μL PGE2 tracer (vial #2) was mixed with 30 mL of the EIA Buffer in a 50 mL centrifuge tube and stored at 4° C.
The Prostaglandin E2 monoclonal antibody was reconstituted as follows. 100 μL PGE2 Antibody (vial #1) was mixed with 30 mL of the EIA buffer in a 50 mL centrifuge tube and stored at 4° C.
DMEM with penicillin/streptomycin was prepared by adding 5 mL penicillin/streptomycin into 5 mL DMEM and stored at 4° C.
The plates were set up as follows: Each plate contained a minimum of two blanks (B), two non-specific binding wells (NSB), two maximum binding wells (B0), and an eight point standard curve run in duplicate (S1-S8).

COX-1 enzyme (ovine) = target: T2, COX-1 enzyme (ovine) (Ovis aries, UniProt P05979); assay: COX-1 enzyme inhibition (COX-1 synthesis of PGE2); assay type: biochemical
T2 construct: purchased Cayman Chemical $60100
T2 sequence (P05979 25-600): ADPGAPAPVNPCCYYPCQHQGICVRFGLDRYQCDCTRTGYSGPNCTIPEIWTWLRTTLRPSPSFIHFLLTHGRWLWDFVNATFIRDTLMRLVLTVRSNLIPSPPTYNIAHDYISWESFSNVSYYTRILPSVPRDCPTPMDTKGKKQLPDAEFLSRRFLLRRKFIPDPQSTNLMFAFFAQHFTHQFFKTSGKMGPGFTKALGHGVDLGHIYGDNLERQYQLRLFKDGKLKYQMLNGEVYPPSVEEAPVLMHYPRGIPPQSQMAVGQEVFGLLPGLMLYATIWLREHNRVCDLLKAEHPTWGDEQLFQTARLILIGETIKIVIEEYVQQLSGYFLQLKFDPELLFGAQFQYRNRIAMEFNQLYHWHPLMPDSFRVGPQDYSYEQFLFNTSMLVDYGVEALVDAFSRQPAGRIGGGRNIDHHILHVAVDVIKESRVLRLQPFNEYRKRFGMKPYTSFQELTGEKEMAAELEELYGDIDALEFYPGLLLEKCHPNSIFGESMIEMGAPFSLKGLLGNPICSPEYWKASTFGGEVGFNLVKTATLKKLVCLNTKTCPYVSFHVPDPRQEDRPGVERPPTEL
Protocol: General Prodecure—Oxygen-free 1.0M Tris-HCl buffer (pH 8.0) was prepared as follows: In a 1000 mL beaker, 12.11 g Trizma HCl was dissolved into 900 mL ultra-pure water. The beaker was placed on a stir plate with a stir bar. NaOH was added until the pH reached 8.0. The volume was adjusted to a final volume of 100 mL and stored in a 1000 mL storage bottle.
The Tris-HCl buffer was placed into a vacuum chamber with the top loosened and the air pump was turned on until the buffer stopped bubbling. The vacuum chamber was then turned off and the storage bottle was tightly covered. This steps was repeated each time when oxygen-free Tris-HCl buffer was used.
One mL cofactor solution was prepared by adding 1.3 mg (−) epinephrine, 0.3 mg reduced glutathione and 1.3 mg hematin to 1 mL oxygen free Tris-HCl buffer. The solutions of the test material were prepared as needed, i.e., 10 mg of aspirin was weighed and dissolved into 1 mL DMOS. Enzymes, i.e., prostaglandin E2 or prostaglandin F2alpha, were dissolved in oxygen free Tris-HCl buffer as follows, i.e., on ice, 6.5 μL of enzyme at 40,000 units/mL was taken and added to 643.5 μL of oxygen free Tris-HCl buffer. This enzyme solution is enough for 60 reactions. The COX-1 enzyme solution was prepared as follows: In a 15 mL centrifuge tube, 10 μL centrifuge tube, 10 μL COX-1 enzyme at 40,000 units/mL was added to oxygen free Tris-HCl with 50 μL of the cofactor solution per reaction. The mixture was incubated on ice for five minutes (i.e., for 60 reactions add 65 μL enzyme in oxygen free Tris-HCl buffer with 3.25 mL cofactor solution.
Sixty microliters of the enzyme solution were combined with 20 mL of the test solution in each well of a 96 well plate. […] The plates were preincubated on ice for 10 minutes. Twenty μL arachidonic acid (30 μM) was added and incubated for 15 minutes at 37° C.
The reaction was terminated by adding 10 μL 2 M HCl. The final solution was used as the supernatant for the PGE2 assay.
General Procedure—EIA Buffer was prepared by diluting the contents of the EIA Buffer Concentrate (vial #4) with 90 ml of Ultra-pure water. […]

COX-2 over COX-1 = conditions: reported, background; cited from earlier work
[1] = RAW 264.7 cell model, read-out: COX-2 IC50 (converted)
[2] = second component alone, PGE2 production by COX-2, RAW 264.7 cells, 24 h LPS, read-out: Second Component IC50 (converted)

Row | Compound | IC50 (COX-2; [1]) | IC50 (COX-2; [2]) | other results
1 | C=C1CC[C@@H]2[C@](C)(CO)[C@H](O)CC[C@@]2(C)[C@@H]1C/C=C1/C(=O)OC[C@H]1O [Andrographolide] | 819 µM | 591 µM | SPECIFICITY COX-1/COX-2 (COX-2; ratio COX-1 IC50 / COX-2 IC50): 5.2; IC50 (COX-1 enzyme (ovine); ovine COX-1 enzyme, read-out: COX-1 IC50 (converted)): ~4280 µM and 4280 µM
2 | COc1cc(/C=C/C(=O)CC(=O)/C=C/c2ccc(O)c(OC)c2)ccc1O [Curcumin] |  |  | IC50 (COX-1 enzyme (ovine); COX-1 IC50, ovine COX-1 enzyme): 34.2 µM
3 | C[C@H]1[C@H](C)CC[C@]2(C(=O)O)CC[C@]3(C)C(=CC[C@@H]4[C@@]5(C)CC[C@H](O)C(C)(C)[C@@H]5CC[C@]43C)[C@H]12 [Ursolic Acid, Ursolic acid] | 130 µM | 171 µM | 
4 | CC(=O)Oc1ccccc1C(=O)O [aspirin] |  |  | COX-2 specificity (COX-2 over COX-1): 0.6
